Laboratory results as given in patent publication US20190111154A1, “TREATMENT OF NEUROPATHY WITH DNA CONSTRUCT EXPRESSING HGF ISOFORMS WITH REDUCED INTERFERENCE FROM GABAPENTINOIDS” (ViroMed Co., Ltd., priority 2017, published 2019).

Experiments:
[1] = Von Frey filament test in CCI mice, gabapentin at different time points, Example 4; type: in vivo
Experimental: The effects of gabepentinoid administration at different time points relative to VM202 administration were tested in chronic constriction injury (CCI) mice.
After CCI surgery, the development of mechanical allodynia was assessed using a Von Frey's filament test once a week, and the level of pain reduction fold was calculated based on the mechanical frequency evaluation. Briefly, animals were placed individually in a cylinder on top of a metal mesh floor for adaptation. To examine the frequency of mechanical sensitivity, mice were assessed by stimulating the hind paw using constant thickness of the filament (0.16 g).
To further understand the delay required to prevent the interference, in a further experiment, CCI mice injected with VM202 were treated with gabapentin after delays for various periods ranging from 0 to 14 days. CCI mice were injected with VM202 or pCK on day 0. The CCI mice were treated with no gabapentin (CONT1, CONT2) or additionally treated with gabapentin starting on day 0 (on the day of VM202 injection, GP1) or day 3 (GP2), day 7 (GP3) or day 10 (GP4) after VM202 injection.
Two weeks after CCI surgery and VM202 or pCK injection, the development of mechanical allodynia was assessed using a Von Frey's filament test, and the level of pain reduction fold was calculated based on the mechanical frequency evaluation for each animal.

[2] = cited from earlier work
[3] = Nerve pinch test in nerve crush mouse model; type: in vivo, mice; conditions: day 7
Experimental: FIG. 5 illustrates the experimental procedure for testing gabapentin effects on VM202-mediated nerve regeneration in a nerve crush mouse model. Nerve crush was induced and VM202 administered to 9-week old male C57BL/6 mice on day 1, gabapentin was injected daily from day 2 to day 6, and nerve pinch test was conducted on day 7.
Effects of gabapentinoids on VM202-mediated nerve regeneration were tested in a nerve crush animal model. The protocol is schematized in FIG. 5. Specifically, nerve crush was introduced to 9-week-old C57BL/6 mice by giving brief pressure to their sciatic nerve. On the same day (day 1), the mice were injected with 200 μg of VM202 to the cranial thigh muscles right after the nerve crush. From the next day (day 2), 100 mg/kg gabapentin was administered daily.
On day 7, a nerve pinch test was performed to quantify functional recovery of the injured nerve. For the nerve pinch test, light anesthesia was induced and sciatic nerve was exposed. The injured nerve was pinched from its distal to proximal direction until a reflex response was observed. The distance was then measured between the injury site and the foremost site that produced the response. The distance measured by this method represents the length of regenerated nerves, which is provided on the y-axis in FIG. 6.

c-Jun = assay: Western blot of c-Jun in dorsal root ganglion (DRG) cells of nerve crush mice; type: in vivo, mouse
Text: Expressions of c-Jun (top) and GAPDH (bottom) were detected by antibodies specific to each protein. FIG. 7B provides relative levels of c-Jun expression in each sample, calculated by measuring band intensity of c-Jun and comparing the intensity with the band intensity of GAPDH.
c-Jun is well established to be a key factor involved in nerve regeneration, and has been used as a marker for that process. Expression of c-Jun protein prepared from dorsal root ganglion (DRG) cells obtained from a sham mouse (“Sham”) or from a nerve crush mouse (“Crush”) was measured by Western blot assay, using an antibody against c-Jun. […] VM202 treatment further increased c-Jun expression level by 1.3-fold (compare lanes 2 and 3 of FIG. 7A), but such induction was not observed when mice were exposed to gabapentin (compare lanes 5 and 6 of FIG. 7A). The western blot assay results were quantified based on the band intensities and presented in FIG. 7B for their analysis and comparison.

[4] = Von Frey filament test in chronic constriction injury (CCI) mice, Example 1; type: in vivo; conditions: for paw withdrawal frequency: day 14-16
Experimental: FIG. 2 illustrates the experimental procedure for testing effects of gabapentin on VM202-mediated pain reduction using chronic constriction injury (CCI) mice. Surgical procedure on sciatic nerve (CCI or sham) was performed and a plasmid (pCK or VM202) was administered to 5-week-old male mice on day 0, gabapentin or PBS was injected daily to the mice from day 1 to day 15, and their pain levels were measured by von Frey filament test starting on day 14 through 16.
In order to explore the mechanisms behind the gabapentinoid interference with VM202 efficacy, we tested effects of gabapentin on VM202-mediated pain reduction in chronic constriction injury (CCI) mice as presented in FIG. 2. CCI is an animal model widely used for studying neuropathic pain. Specifically, chronic constriction injury (CCI) was introduced by applying loosely constrictive ligatures to the sciatic nerve of 5 week-old male mice. The CCI mice were divided into three groups—in the first group, 200 μg of pCK vector was administered into the cranial thigh muscles as a negative control for VM202 administration (pCK is the vector used in VM202, but lacks the HGF vector payload), in the second group, 200 μg of VM202 was administered into the cranial thigh muscles, and in the third group, no DNA construct was administered. Animals in each of the first and the second group were further divided into two subgroups, with the first subgroup injected daily with 100 mg/kg of gabapentin and the second subgroup injected daily with PBS as a negative control for gabapentin administration, via intraperitoneal cavity for two weeks. The sham group without CCI was also maintained and daily injected with PBS. From day 14 to day 16, Von Frey filament test was performed to assess the level of neuropathic pain (mechanical allodynia).

[5] = CCI mice given pCK and daily 100 mg/kg gabapentin i.p.

VM202: plasmid DNA, HGF-X7 cloned into the pCK vector (SEQ ID NO: 11), expresses flHGF and dHGF; KCCM-10361
pain level versus CCI-pCK ([1]; CCI-VM202-Gaba1: gabapentin from day 0 to day 14): no effects | pain level from day 14 to 28, after gabapentin stopped ([1]; CCI-VM202-Gaba1: gabapentin from day 0 to day 14, none afterwards): continued to have high level of pains | pain relieving effects ([1]; CCI-VM202-Gaba2: gabapentin from day 15 to day 28): significant and maintained | pain level versus CCI-pCK ([1]; CCI-VM202: 200 μg/head VM202 day 0, no gabapentin): significantly reduced the pain level | pain reducing effect two weeks after CCI surgery ([1]; CONT2: no gabapentin): significant pain relief | pain reducing effect two weeks after CCI surgery ([1]; GP1: 100 mg/kg gabapentin started day 0): did not have significant pain reducing effects | pain reducing effect two weeks after CCI surgery ([1]; GP2: 100 mg/kg gabapentin started day 3): did not have significant pain reducing effects | pain reducing effect two weeks after CCI surgery ([1]; GP3: 100 mg/kg gabapentin started day 7): did not have significant pain reducing effects | pain reducing effect two weeks after CCI surgery ([1]; GP4: 100 mg/kg gabapentin started day 10): significant pain relief | pain in patients with diabetic peripheral neuropathy ([2]; injections into the calf muscle, two days of treatment spaced two weeks apart): significantly reduce pain | reduction in pain from baseline, patients not on Lyrica and/or Neurontin versus total patient group ([2]; low dose of VM202 (total 16 mg), 3, 6, 9 months): larger reduction in pain | pain relief in patients not taking pregabalin or gabapentin versus patients taking a gabapentinoid ([2]; post hoc analysis of phase II data): more effective in relieving pain in patients not taking pregabalin or gabapentin | duration of symptomatic relief with improvement in quality of life ([2]; two days of treatment, spaced two weeks apart): 3 months | length of regenerated nerve ([3]; 200 μg VM202, daily 100 mg/kg gabapentin): 1.95±0.3 mm | length of regenerated nerve ([3]; 200 μg VM202, daily PBS): about 4±0.2 mm | length of regenerated nerve, fold versus pCK control ([3]; daily PBS): approximately 2.7 fold | increase of nerve regeneration, fold versus pCK control group ([3]; in the presence of daily gabapentin): 2.3 fold | increase of c-Jun expression level versus nerve crush mice given pCK (c-Jun; daily PBS (lanes 2 and 3)): 1.3 fold | induction of c-Jun expression versus nerve crush mice given pCK (c-Jun; mice exposed to gabapentin (lanes 5 and 6)): not observed | pain level (paw withdrawal frequency) ([4]; CCI mice, 200 μg VM202, no gabapentin, throughout the experimental period): significantly lower pain levels | paw withdrawal frequency ([4]; CCI mice, 200 μg VM202 i.m. plus daily 100 mg/kg gabapentin i.p.): 46.1% | paw withdrawal frequency ([4]; CCI mice, 200 μg VM202 i.m., no gabapentin): 30.56% | time over which pain level increased close to the pCK-PBS level after gabapentin injection ([4]; VM202-treated CCI mice, daily 100 mg/kg gabapentin): about 10 hours | compromise of the pain reduction effect of VM202 by gabapentin ([4]; daily 100 mg/kg gabapentin i.p.): more than 50%

NCC1(CC(=O)O)CCCCC1 [gabapentin]
duration of pain relieving effects [4, 5]: about 6 hours | pain level (paw withdrawal frequency) [4, 5]: decreases in pain levels immediately after the gabapentin administration
